For test [1], the system named is rhinovirus-ribonucleic acid. The test can be described thus: Role of the hydrolyzable β-γ-oxygen-bridge in autocatalytic degradation of rhinovirus RNA. The class given is biochemical. From the text:
3. The essential role of the hydrolyzable β-γ-oxygen-bridge in the nucleoside triphosphate for the autocatalytic degradation of the rhinovirus-ribonucleic acid was shown by: […]

The subject of test [2] is radioactive-labeled rhinovirus ribonucleic acid. Kind of test: Synergism test: inducible decomposition of P32-labeled rhinovirus RNA. The class given is biochemical. The settings on record: 30 minutes, pH 7.6, 36° C. As for the experimental part: 6. The synergistic effect of the complexing agent (e.g. sodium pyrophosphate) and phosphorylating agent (e.g. adenosine triphosphate) was shown by means of the inducible decomposition of radioactive-labeled rhinovirus ribonucleic acid: Aliquotes (10^6 plaque-forming units) of purified rhinoviruses, the ribonucleic acid of which had been labeled with phosphorus-32, were incubated for 30 minutes with 5 n moles of adenosine triphosphate, either separately or with increasing quantities of sodium pyrophosphate at a pH-value of 7.6 and 36° C. As control values sodium pyrophosphate was used in various concentrations without adenosine triphosphate.

Molecules are shown by their SMILES.

Regarding `Nc1ncnc2c1ncn2[C@@H]1O[C@H](COP(=O)(O)OP(=O)(O)OP(=O)(O)O)[C@@H](O)[C@H]1O` [Adenosine triphosphate, adenosine triphosphate], the “removal of P^32-labeled γ-phosphate during the reaction with rhinovirus” value in test [1] (Mg^++ -ion free medium) was “formation of adenosine diphosphate and rhinovirus-bonded P^32”. The “% degradation of the viral ribonucleic acid” value in test [2] (adenosine triphosphate 5 n moles, sodium pyrophosphate 0) is recorded as less than 7.5%. Regarding `Nc1ncnc2c1ncn2[C@@H]1O[C@H](COP(=O)(O)OP(=O)(O)NP(=O)(O)O)[C@@H](O)[C@H]1O` [Adenosine-imido-diphosphate], the “initiating the autocatalytic inactivation of the rhinoviruses” value in test [1] is on record as “completely ineffective”. For `O=P([O-])([O-])OP(=O)([O-])[O-].[Na+].[Na+].[Na+].[Na+]` [Sodium pyrophosphate, sodium pyrophosphate], the “% degradation of the viral ribonucleic acid” value is less than 10% in test [2] (adenosine triphosphate 0, sodium pyrophosphate 50 n moles); less than 10% in test [2] (adenosine triphosphate 0, sodium pyrophosphate 250 n moles); less than 10% in test [2] (adenosine triphosphate 0, sodium pyrophosphate 500 n moles).

As for `Nc1ncnc2c1ncn2[C@@H]1O[C@H](COP(=O)(O)OP(=O)(O)O)[C@@H](O)[C@H]1O` [adenosine diphosphate], in test [1], the “induction of the autocatalytic RNA-degradation” value is “Inactivity”.

Values taken from patent US4046879A, “Antiviral compositions” (priority 1975, dated 1977).
